Measurements: patent US11548855B2, “Pyrazole amide compound and application thereof, and fungicide” (Shandong United Pesticide Industry Co. Ltd., priority 2017, dated 2023)

Key:
[1] = test system: soybean rust (Phakopsora pacchyrhizi Sydow); assay: Greenhouse pot test, soybean rust; format: in vivo; conditions: Glycine max, 168 h, read-out: Control effect (%) Soybean rust
[2] = test system: corn rust (Puccinia sorghi); assay: Greenhouse pot test, corn rust; format: in vivo; conditions: Puccinia sorghi, 168 h, read-out: Control effect (%) Corn rust
How it was run: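 Corn seedlings at the two-to-three-leaf stage were sprayed with compound as 5% EC, water-sprayed blanks included, three replicates. After 24 h they were inoculated with Puccinia sorghi, held in a humidity chamber (25/20° C, 95–100% RH) for 24 h, then kept in a greenhouse at 25±1° C. Disease index was scored after 7 days and control effect (%) was calculated relative to the blank.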

[3] = test system: rice sheath blight fungi (Rhizoctonia solami); assay: Greenhouse pot test, rice sheath blight; format: in vivo
Method: The compounds provided by the present disclosure and some control compounds were tested by the same methods in the Test example 1, except that the effective concentrations of the compounds in this Test example are shown in Table 2.
In addition, the test method for rice sheath blight as following steps:
The potted rice seedling with uniform growth was selected, and dried in the shade for 24 h after spray treatment, then inoculated 3 blocks of 0.25 cm^2 rice sheath blight fungi (Rhizoctonia solami) at the base of seedling by clamp inoculation bacterium block method. The test materials inoculated were moved into greenhouse (temperature: lighting 28° C., dark 25° C., relative humidity 95%), after 7 days, investigate 5 leaves of per block treatment, the grading investigation was carried out according to the disease incidence condition of sheaths and leaves of rice, “Guidelines for the field efficacy trials of pesticides” was adopted as the grading standard, the disease index was calculated according to the grading standard, and the control effect in a unit of % was calculated according to disease index.

[4] = test system: wheat powdery mildew; assay: Field trial, wheat powdery mildew; format: in vivo, Erysiphe graminis; conditions: sprayed once
Method: II. The Wheat Powdery Mildew Test Method:
(§1) Spray method: Stein and leaf spraying (Applicator: Xinkangda lithium battery electric sprayer).
Test crops: wheat (cultivars: Liaochun 10)
(§2) The test was carried out in Shenyang, the test field was loam with rich organic matters and normal management of fertilizer and water, and no other pesticide was applied during the test.
The arrangement of the test plot was random block permutation; the area of the test plot: 15 m^2; repeat times: 3 times; spray time and frequency: Sep. 17, 2018, once. Spray dosage: each treatment was repeated 3 times, the total water consumption was 8 L. No other pesticide was applied during the test.
The incidence of disease spots in each plot was investigated by diagonal selecting 4 samples/plot and 20 plants/samples, and the first leaf below the flag leaf of each plant was investigated.
(§3) The grading standard of crop disease was as follows:
(§4) Grade 0: no leaf-spot area;
(§5) Grade 1: the ratio of leaf-spot area to leaf area is less than 5%;
(§6) Grade 3: the ratio of leaf-spot area to leaf area is between 6-25%;
(§7) Grade 5: the ratio of leaf-spot area to leaf area is between 26-50%;
(§8) Grade 7: the ratio of leaf-spot area to leaf area is between 51-75%;
(§9) Grade 9: the ratio of leaf-spot area to leaf area is between 76-100%;
(§10) According to the relevant content of the “Guidelines for the field efficacy trials of pesticides of the People's Republic of China (PRC)”, the disease index was calculated according to the grading standard, and the control effect in a unit of % was calculated based on the disease index, and the test data of significance analysis was performed by using DPS evaluation system (DMRT).

[5] = test system: soybean rust; assay: Field trial, soybean rust; format: in vivo, Phakopsora pacchyrhizi Sydow; conditions: sprayed 2 times
Method: III. The Soybean Rust Test Method:
as §1
Test crops: soybean (cultivars: Glycine max(L) Merr)
as §2
The arrangement of the test plot was random block permutation; the area of the test plot: 25 m^2; repeat times: 3 times; spray time and frequency: 2 times on Aug. 11, 2018 and Aug. 21, 2018 respectively. Spray dosage: each treatment was repeated 3 times, the total water consumption was 8 L. No other pesticide was applied during the test. […] 15-20 days after the second spray treatment, the control effect was investigated.
The incidence of disease spots in each plot was investigated by diagonal selecting 5 samples/plot and 20 plants/samples, 10 leaves/plant was surveyed.
as §3, §4, §5, §6, §7, §8, §9, §10

[6] = test system: wheat powdery mildew (Erysiphe graminis); assay: Greenhouse pot test, wheat powdery mildew; format: in vivo; conditions: Blumeria graminis, 168 h, read-out: Control effect (%) Wheat powdery mildew

`Cn1cc(C(=O)Nc2ccccc2Oc2ccc(C(F)(F)F)cc2C(F)(F)F)c(C(F)F)n1` [Compound 1] was tested, and the pest or weed control at 0.5 µg/mL ([1]; 0.5 mg/L) was 100%, the pest or weed control at 1 µg/mL ([1]; 1 mg/L) was 100% and the pest or weed control at 1.5625 µg/mL ([1]; 1.5625 mg/L) was 100%. For the same molecule, the pest or weed control at 2.5 µg/mL ([1]; 2.5 mg/L) was 100%, the pest or weed control at 3.125 µg/mL ([1]; 3.1250 mg/L) was 100% and the pest or weed control at 6.25 µg/mL ([1]; 6.25 mg/L) was 100%. The pest or weed control at 10 µg/mL ([1]; 10 mg/L) was 100%, the pest or weed control at 25 µg/mL ([1]; 25 mg/L) was 100% and the pest or weed control at 100 µg/mL ([1]; 100 mg/L) was 100%. It also gave a pest or weed control at 1.5625 µg/mL ([2]; 1.5625 mg/L) of 100%, a pest or weed control at 2.5 µg/mL ([2]; 2.5 mg/L) of 100% and a pest or weed control at 3.125 µg/mL ([2]; 3.1250 mg/L) of 100%. The pest or weed control at 6.25 µg/mL ([2]; 6.25 mg/L) was 100%, the pest or weed control at 10 µg/mL ([2]; 10 mg/L) was 100% and the pest or weed control at 25 µg/mL ([2]; 25 mg/L) was 100%. For the same molecule, the pest or weed control at 100 µg/mL ([2]; 100 mg/L) was 100%, the “Control effect (%) Rice sheath blight” value ([3]; 0.625 mg/L) was 75% and the “Control effect (%) Rice sheath blight” value ([3]; 1 mg/L) was 80%. The “Control effect (%) Rice sheath blight” value ([3]; 1.5625 mg/L) was 85%, the “Control effect (%) Rice sheath blight” value ([3]; 2.5 mg/L) was 90% and the “Control effect (%) Rice sheath blight” value ([3]; 3.1250 mg/L) was 100%. For the same molecule, the “Control effect (%) Rice sheath blight” value ([3]; 10 mg/L) was 100%, the “Control effect (%) Wheat powdery mildew” value ([4]; 100 mg/L) was 98% and the “Control effect (%) Wheat powdery mildew” value ([4]; 200 mg/L) was 100%. For the same molecule, the “Control effect (%)” value ([5]; dosage 50 mg/L) was 92.67%, the “Control effect (%)” value ([5]; dosage 75 mg/L) was 94.56% and the “Control effect (%)” value ([5]; dosage 100 mg/L) was 97.69%. It also gave a pest or weed control at 1.5625 µg/mL ([6]; 1.5625 mg/L) of 85%, a pest or weed control at 2.5 µg/mL ([6]; 2.5 mg/L) of 100% and a pest or weed control at 3.125 µg/mL ([6]; 3.1250 mg/L) of 100%. For the same molecule, the pest or weed control at 6.25 µg/mL ([6]; 6.25 mg/L) was 100%, the pest or weed control at 10 µg/mL ([6]; 10 mg/L) was 100% and the pest or weed control at 25 µg/mL ([6]; 25 mg/L) was 100%. The pest or weed control at 100 µg/mL ([6]; 100 mg/L) was 100%.
